Test results reported in paper PMC4360378 (Journal of Medicinal Chemistry, 2015).

How the values were obtained:
yeast Rtt109–Vps75 = biological target: T1, yeast Rtt109–Vps75 (Saccharomyces cerevisiae, UniProt Q07794); assay: [3H]-acetyl-CoA HAT assay, Rtt109; format: biochemical; conditions: 1 mM DTT; results similar versus Rtt109-Vps75, p300, and Gcn5
T1 sequence (Q07794 1-436): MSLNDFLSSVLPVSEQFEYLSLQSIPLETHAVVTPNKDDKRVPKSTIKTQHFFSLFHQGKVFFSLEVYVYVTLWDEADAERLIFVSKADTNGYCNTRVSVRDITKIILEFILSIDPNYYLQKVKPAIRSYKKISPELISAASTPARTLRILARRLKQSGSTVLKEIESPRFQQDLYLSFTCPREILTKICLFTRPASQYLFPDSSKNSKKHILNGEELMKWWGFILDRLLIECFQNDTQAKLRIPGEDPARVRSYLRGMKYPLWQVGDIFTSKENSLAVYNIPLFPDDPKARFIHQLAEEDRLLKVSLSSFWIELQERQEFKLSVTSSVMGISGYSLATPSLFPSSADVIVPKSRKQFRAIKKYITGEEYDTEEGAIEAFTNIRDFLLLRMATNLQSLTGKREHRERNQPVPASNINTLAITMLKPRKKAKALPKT
T1 sequence (P53853 1-264 partner): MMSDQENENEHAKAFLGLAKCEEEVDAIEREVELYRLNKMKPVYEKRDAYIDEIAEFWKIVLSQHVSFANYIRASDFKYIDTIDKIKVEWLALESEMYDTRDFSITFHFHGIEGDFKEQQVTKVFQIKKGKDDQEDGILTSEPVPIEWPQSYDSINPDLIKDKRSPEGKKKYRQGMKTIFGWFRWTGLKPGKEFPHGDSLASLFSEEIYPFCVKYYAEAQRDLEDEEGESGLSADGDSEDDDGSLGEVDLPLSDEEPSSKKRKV

human La antigen = biological target: T2, human La antigen (Homo sapiens, UniProt P05455); assay: ALARM NMR; format: binding; conditions: for ALARM NMR reactivity: 200 μM test compounds, absence of DTT, prevented by 20 mM DTT; for La protein conformation in ALARM NMR: without the inclusion of DTT
T2 sequence (P05455 100-324): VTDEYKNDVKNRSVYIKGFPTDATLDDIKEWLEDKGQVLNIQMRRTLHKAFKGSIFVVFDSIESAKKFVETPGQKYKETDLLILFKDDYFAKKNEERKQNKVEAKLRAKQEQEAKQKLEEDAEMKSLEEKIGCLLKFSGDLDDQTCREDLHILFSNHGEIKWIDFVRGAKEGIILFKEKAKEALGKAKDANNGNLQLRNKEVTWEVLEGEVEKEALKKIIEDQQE

yeast Rtt109 = biological target: T3, yeast Rtt109 (Saccharomyces cerevisiae, UniProt Q07794); assay: Protein mass spectrometry; format: binding; conditions: 100 μM compound, 10 μM protein, 30 °C, 60 min; LC–MS/MS
T3 sequence (Q07794 1-436): T1 sequence (Q07794 1-436)
T3 sequence (P53853 1-264 partner): T1 sequence (P53853 1-264 partner)

[1] = Stability in HTS buffer by UPLC–MS; format: physicochemical; conditions: HTS buffer pH 8.0, UPLC–MS
yeast Vps75 = biological target: T4, yeast Vps75 (Saccharomyces cerevisiae, UniProt P53853); assay: Protein mass spectrometry; format: binding; conditions: 100 μM compound, 10 μM protein, 30 °C, 60 min; LC–MS/MS
T4 sequence (P53853 1-264): T1 sequence (P53853 1-264 partner)
T4 sequence (Q07794 1-436 partner): T1 sequence (Q07794 1-436)

SMILES	(+) DTT IC50 effect (yeast Rtt109–Vps75)	ALARM NMR reactivity (human La antigen)	other results
O=C(O)c1ccc(-n2nnnc2SC2=CS(=O)(=O)c3ccccc32)cc1 [1a]	increase	covalently modify cysteines	Peptide adduct detected, Rtt109 (yeast Rtt109): forms a detectable adduct with C94
O=[N+]([O-])c1cc(Br)c2nsnc2c1Sc1ncnc2[nH]cnc12 [2a]	increase	covalently modify cysteines	stability in HTS buffer [1]: stable
O=[N+]([O-])c1c(Sc2nnnn2-c2ccccc2)cc(Cl)c2nonc12 [2e]	increase	–	–
CNc1nc(-c2ccccc2)[n+](-c2ccccc2)s1.[Cl-] [3a]	–	covalently modify cysteines	–
O=C1CC(Sc2nnc(-c3ccccc3O)o2)C(=O)N1c1ccc(Br)cc1 (stereo not shown) [4a]	increase	covalently modify cysteines	stability in HTS buffer [1]: thiol leaving groups (e.g., 4a″) were detected
O=C(O)CCSc1cc(NS(=O)(=O)c2ccc(Br)cc2)c2ccccc2c1O [6a]	increase	covalently modify cysteines	La protein conformation in ALARM NMR (human La antigen): strongly perturbed; Peptide adduct detected, Vps75 (yeast Vps75): forms a detectable adduct with mono-oxidized C21
O=S(=O)(Nc1cc(Sc2ncn[nH]2)c(O)c2ccccc12)c1ccc2ccccc2c1 [6b]	–	covalently modify cysteines	La protein conformation in ALARM NMR (human La antigen): strongly perturbed
O=C(O)CSc1cc(NS(=O)(=O)c2ccc(C(=O)O)cc2)c2ccccc2c1O [6c]	increase	–	–
O=S(=O)(Nc1cc(Cl)c(O)c2ccccc12)c1ccc(Br)cc1 [6e]	increase	–	–
O=C(O)CSc1cc(NS(=O)(=O)c2ccc(Br)cc2)c2ccccc2c1O [6y]	increase	–	–
CCN(CC)c1ccc2c(C)c(-c3ccc(N4C(=O)C=CC4=O)cc3)c(=O)oc2c1 [CPM, N-[4-(7-diethylamino-4-methylcoumarin-3-yl)phenyl]maleimide, reference compound]	increase	–	–
OC(Cn1cncn1)(Cn1cncn1)c1ccc(F)cc1F [fluconazole, reference compound]	none	–	–
